In article PMC9925730, “Controlled sequential in situ self-assembly and disassembly of a fluorogenic cisplatin prodrug for cancer theranostics” (Nature Communications, 2023):
Values joined by “and” are separate entries in the source; they are usually repeats but may differ in a detail not shown here. Identical values can stand only once.

How the values were obtained:
ALP [1] = biological target: T1, ALP (Bos taurus, UniProt P19111); experiment: NIR FL, PA and absorption signals of P-CyPt in solution in response to ALP; format: biochemical; details: P-CyPt 10 μM; for normalized Abs. at 700 nm (Fig. 2j) / normalized Abs. at 750 nm (Fig. 2j) / normalized FL intensity at 710 nm (Fig. 2k) / normalized PA intensity at 700 nm (Fig. 2l) / normalized PA intensity at 750 nm (Fig. 2l): ALP 100 U/L 37 °C
T1 construct: Alkaline phosphatase from bovine; purchased Sigma-Aldrich; host or cells: bovine intestinal mucosa (tissue-derived)
Method: To monitor the NIR FL and PA imaging signals of P-CyPt in response to ALP, P-CyPt (10 μM) in Tris buffer (1 mL) was incubated with ALP (100 U/L) at 37 °C for 0, 5, 10, 15, 20, and 30 min. To monitor the NIR FL and PA imaging signals of Pt^IVNPs in response to GSH, P-CyPt (10 μM) in Tris buffer (1 mL) was first incubated with ALP (100 U/L) at 37 °C for 30 min and then incubated with 10 mM GSH at 37 °C for another 10, 20, 30, 40, 50, and 60 min. The NIR FL spectra of these solutions at each time point were acquired on a HORIBA Jobin Yvon Fluoromax-4 fluorescence spectrometer, with excitation at 680 nm. For PA imaging, the incubation solutions at each time point were loaded into a fine bore polythene tube ([…], 1.27 mm OD). The tubes were then sealed and immersed in water. The PA images at both 700 and 750 nm were acquired on the Vevo 2100 LAZR system (FUJIFILM VisualSonics).

ALP [2] = experiment: Dephosphorylated efficacy of P-CyPt towards varying concentrations of ALP (NIR fluorescence); format: biochemical; details: for Normalized FL intensity: ALP 0 U/L; for normalized signal over time (section 'Supplementary Fig. 2c'), mean of 3: 250 μM

T1 sequence (P19111 20-506 limits assumed): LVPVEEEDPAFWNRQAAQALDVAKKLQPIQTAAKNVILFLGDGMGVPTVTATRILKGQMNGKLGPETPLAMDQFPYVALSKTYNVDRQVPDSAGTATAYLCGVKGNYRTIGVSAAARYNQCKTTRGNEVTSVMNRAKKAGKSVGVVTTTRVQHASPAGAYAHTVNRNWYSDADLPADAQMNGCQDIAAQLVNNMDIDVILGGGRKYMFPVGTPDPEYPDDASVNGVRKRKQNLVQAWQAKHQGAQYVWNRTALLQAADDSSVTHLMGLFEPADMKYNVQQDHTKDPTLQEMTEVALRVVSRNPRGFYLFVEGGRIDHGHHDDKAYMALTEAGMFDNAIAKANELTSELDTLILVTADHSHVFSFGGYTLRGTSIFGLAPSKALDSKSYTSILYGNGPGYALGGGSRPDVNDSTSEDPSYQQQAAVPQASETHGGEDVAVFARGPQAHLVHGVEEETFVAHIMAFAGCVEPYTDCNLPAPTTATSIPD

CC1(C)C(/C=C/C2=C3Oc4cc(OP(=O)(O)O)c(Cl)cc4C=C3CCC2)=[N+](CCCNC(=O)[C@@H](Cc2ccccc2)NC(=O)[C@@H](Cc2ccccc2)NC(=O)CCC(=O)[O][Pt]([NH2])([NH2])([OH])([Cl])[Cl])c2ccccc21 [P-CyPt]
normalized Abs. at 700 nm (Fig. 2j) (ALP [1]; 0 min): 0.03754
normalized Abs. at 750 nm (Fig. 2j) (ALP [1]; 0 min): 0.01756
normalized FL intensity at 710 nm (Fig. 2k) (ALP [1]; 0 min): 0.979
normalized PA intensity at 700 nm (Fig. 2l) (ALP [1]; 0 min): 0.1461
normalized PA intensity at 750 nm (Fig. 2l) (ALP [1]; 0 min): 0.1527
normalized Abs. at 700 nm (Fig. 2j) (ALP [1]; 5 min): 0.6947
normalized Abs. at 750 nm (Fig. 2j) (ALP [1]; 5 min): 0.2821
normalized FL intensity at 710 nm (Fig. 2k) (ALP [1]; 5 min): 5.873
normalized PA intensity at 700 nm (Fig. 2l) (ALP [1]; 5 min): 0.4821
normalized PA intensity at 750 nm (Fig. 2l) (ALP [1]; 5 min): 0.3333
normalized Abs. at 700 nm (Fig. 2j) (ALP [1]; 10 min): 0.8107
normalized Abs. at 750 nm (Fig. 2j) (ALP [1]; 10 min): 0.4361
normalized FL intensity at 710 nm (Fig. 2k) (ALP [1]; 10 min): 6.541
normalized PA intensity at 700 nm (Fig. 2l) (ALP [1]; 10 min): 0.5922
normalized PA intensity at 750 nm (Fig. 2l) (ALP [1]; 10 min): 0.5187
normalized Abs. at 700 nm (Fig. 2j) (ALP [1]; 15 min): 0.8996
normalized Abs. at 750 nm (Fig. 2j) (ALP [1]; 15 min): 0.6102
normalized FL intensity at 710 nm (Fig. 2k) (ALP [1]; 15 min): 6.902
normalized PA intensity at 700 nm (Fig. 2l) (ALP [1]; 15 min): 0.7009
normalized PA intensity at 750 nm (Fig. 2l) (ALP [1]; 15 min): 0.788
normalized Abs. at 700 nm (Fig. 2j) (ALP [1]; 20 min): 0.9422
normalized Abs. at 750 nm (Fig. 2j) (ALP [1]; 20 min): 0.6514
normalized FL intensity at 710 nm (Fig. 2k) (ALP [1]; 20 min): 7.672
normalized PA intensity at 700 nm (Fig. 2l) (ALP [1]; 20 min): 0.8542
normalized PA intensity at 750 nm (Fig. 2l) (ALP [1]; 20 min): 0.9373
normalized Abs. at 700 nm (Fig. 2j) (ALP [1]; 30 min): 0.996
normalized Abs. at 750 nm (Fig. 2j) (ALP [1]; 30 min): 0.688
normalized FL intensity at 710 nm (Fig. 2k) (ALP [1]; 30 min): 7.9669
normalized PA intensity at 700 nm (Fig. 2l) (ALP [1]; 30 min): 0.9524
normalized PA intensity at 750 nm (Fig. 2l) (ALP [1]; 30 min): 1.0015
NIR FL at 710 nm switched on (ALP [1]; ALP 100 U/L, after 30 min): ~ 8 fold
increase of PA signal at 700 nm (ALP [1]; ALP 100 U/L, after 30 min): more than sixfold
increase of PA signal at 750 nm (ALP [1]; ALP 100 U/L, after 30 min): more than sixfold
Normalized FL intensity (ALP [2]; 0 min, mean of 3 samples): 1.022
Normalized FL intensity (ALP [2]; 0 min, single samples): 0.9783 and 1.039 and 1.048
Normalized FL intensity (ALP [2]; 2 min, mean of 3 samples): 1.026
Normalized FL intensity (ALP [2]; 2 min, single samples): 0.9783 and 1.057 and 1.043
Normalized FL intensity (ALP [2]; 4 min, mean of 3 samples): 1.02
Normalized FL intensity (ALP [2]; 4 min, single samples): 1.0087 and 1.035 and 1.017
Normalized FL intensity (ALP [2]; 6 min, mean of 3 samples): 1.039
Normalized FL intensity (ALP [2]; 6 min, single samples): 1.087 and 1.03 and 1
Normalized FL intensity (ALP [2]; 8 min, mean of 3 samples): 1.032
Normalized FL intensity (ALP [2]; 8 min, single samples): 1.087 and 1.013 and 0.9957
Normalized FL intensity (ALP [2]; 10 min, mean of 3 samples): 1.035
Normalized FL intensity (ALP [2]; 10 min, single samples): 1.083 and 1.017 and 1.004
Normalized FL intensity (ALP [2]; 12 min, mean of 3 samples): 1.029
Normalized FL intensity (ALP [2]; 12 min, single samples): 1.083 and 1.004 and 1
Normalized FL intensity (ALP [2]; 14 min, mean of 3 samples): 1.014
Normalized FL intensity (ALP [2]; 14 min, single samples): 1.065 and 0.9957 and 0.9826
Normalized FL intensity (ALP [2]; 16 min, mean of 3 samples): 1.013
Normalized FL intensity (ALP [2]; 16 min, single samples): 1.057 and 0.9957 and 0.987
Normalized FL intensity (ALP [2]; 18 min, mean of 3 samples): 1.0087
Normalized FL intensity (ALP [2]; 18 min, single samples): 1.048 and 1 and 0.9783
Normalized FL intensity (ALP [2]; 20 min, mean of 3 samples): 1.016
Normalized FL intensity (ALP [2]; 20 min, single samples): 1.039 and 0.9913 and 1.017
Normalized FL intensity (ALP [2]; 22 min, mean of 3 samples): 1.023
Normalized FL intensity (ALP [2]; 22 min, single samples): 1.104 and 0.9913 and 0.9739
Normalized FL intensity (ALP [2]; 24 min, mean of 3 samples): 1
Normalized FL intensity (ALP [2]; 24 min, single samples): 1.039 and 0.9957 and 0.9652
Normalized FL intensity (ALP [2]; 26 min, mean of 3 samples): 1.0029
Normalized FL intensity (ALP [2]; 26 min, single samples): 1.035 and 1.004 and 0.9696
Normalized FL intensity (ALP [2]; 28 min, mean of 3 samples): 1.014
Normalized FL intensity (ALP [2]; 28 min, single samples): 1.026 and 0.9913
Normalized FL intensity (ALP [2]; 30 min, mean of 3 samples): 1.00E+00
Normalized FL intensity (ALP [2]; 30 min, single samples): 1.04E+00 and 9.91E-01 and 0.9783
normalized signal over time (section 'Supplementary Fig. 2c'), mean of 3 (ALP [2]; time 200 min): 0.9941
normalized signal over time (section 'Supplementary Fig. 2c'), mean of 3 (ALP [2]; time 220 min): 0.9946
normalized signal over time (section 'Supplementary Fig. 2c'), mean of 3 (ALP [2]; time 240 min): 0.9956
normalized signal over time (section 'Supplementary Fig. 2c'), mean of 3 (ALP [2]; time 300 min): 0.9969
normalized signal over time (section 'Supplementary Fig. 2c'), mean of 3 (ALP [2]; time 340 min): 0.9978
normalized signal over time (section 'Supplementary Fig. 2c'), mean of 3 (ALP [2]; time 360 min): 0.9982
normalized signal over time (section 'Supplementary Fig. 2c'), mean of 3 (ALP [2]; time 380 min): 0.998
normalized signal over time (section 'Supplementary Fig. 2c'), mean of 3 (ALP [2]; time 400 min): 0.9983
normalized signal over time (section 'Supplementary Fig. 2c'), mean of 3 (ALP [2]; time 420 min): 0.9984
normalized signal over time (section 'Supplementary Fig. 2c'), mean of 3 (ALP [2]; time 460 min): 0.9985
normalized signal over time (section 'Supplementary Fig. 2c'), mean of 3 (ALP [2]; time 480 min): 0.9989
normalized signal over time (section 'Supplementary Fig. 2c'), mean of 3 (ALP [2]; time 500 min): 0.9986
normalized signal over time (section 'Supplementary Fig. 2c'), mean of 3 (ALP [2]; time 520 min): 0.9984
normalized signal over time (section 'Supplementary Fig. 2c'), mean of 3 (ALP [2]; time 540 min): 0.9984
normalized signal over time (section 'Supplementary Fig. 2c'), mean of 3 (ALP [2]; time 560 min): 0.9984
normalized signal over time (section 'Supplementary Fig. 2c'), mean of 3 (ALP [2]; time 580 min): 0.9984
normalized signal over time (section 'Supplementary Fig. 2c'), mean of 3 (ALP [2]; time 600 min): 0.9984
